Measured values from publication PMC6327852 (Journal of cellular physiology, 2016).

Key:
[1] = test system: glucosidase I, glucosidase IIα, glucosidase IIβ; assay: Immuno-fluorescence of glucosidases in GBM12 cells; assay type: cell-based; settings: 2.0 μM, 6 h
[2] = test system: influenza A and B viruses; assay: Influenza virus-mediated cell lysis, live/dead assay in MRC5 cells; assay type: cell-based, human
Ebola virus = assay type: cell-based
[3] = test system: rabbit hemorrhagic disease virus (RHDV); assay: Rabbit hemorrhagic fever virus studies; assay type: in vivo
[4] = test system: mTOR Serine 2448 phosphorylation; assay type: cell-based; settings: GBM5 cells, single agent 2.0 μM, 6 h
HSP70 ATPase = HSP70 ATPase (Homo sapiens, UniProt P0DMV8); assay: ATPase activity of immuno-precipitated HSP70-GFP; settings: 30 nM - 1 μM, 30 min at 37 °C
HSP90 ATPase = assay: ATPase activity of immuno-precipitated FLAG-tagged HSP90; settings: 30 nM - 1 μM, 30 min at 37 °C
NPC1 and TIM1 = assay type: cell-based
HSP27 = HSP27 (Homo sapiens, UniProt P04792); assay: Immuno-fluorescence of HSP27 expression in GBM cells; settings: GBM5, GBM6, GBM12 cells, 0–3.0 μM, 3 h
HSP90, GRP78, and HSP70 = assay: Immuno-fluorescence detection of chaperones in fixed cells; settings: HuH7 and HT1080, 0–3.0 μM ± sildenafil 2 μM, 2 h
Junin virus (JUNV) = assay type: cell-based

Sequence of HSP70 ATPase (P0DMV8 whole entry): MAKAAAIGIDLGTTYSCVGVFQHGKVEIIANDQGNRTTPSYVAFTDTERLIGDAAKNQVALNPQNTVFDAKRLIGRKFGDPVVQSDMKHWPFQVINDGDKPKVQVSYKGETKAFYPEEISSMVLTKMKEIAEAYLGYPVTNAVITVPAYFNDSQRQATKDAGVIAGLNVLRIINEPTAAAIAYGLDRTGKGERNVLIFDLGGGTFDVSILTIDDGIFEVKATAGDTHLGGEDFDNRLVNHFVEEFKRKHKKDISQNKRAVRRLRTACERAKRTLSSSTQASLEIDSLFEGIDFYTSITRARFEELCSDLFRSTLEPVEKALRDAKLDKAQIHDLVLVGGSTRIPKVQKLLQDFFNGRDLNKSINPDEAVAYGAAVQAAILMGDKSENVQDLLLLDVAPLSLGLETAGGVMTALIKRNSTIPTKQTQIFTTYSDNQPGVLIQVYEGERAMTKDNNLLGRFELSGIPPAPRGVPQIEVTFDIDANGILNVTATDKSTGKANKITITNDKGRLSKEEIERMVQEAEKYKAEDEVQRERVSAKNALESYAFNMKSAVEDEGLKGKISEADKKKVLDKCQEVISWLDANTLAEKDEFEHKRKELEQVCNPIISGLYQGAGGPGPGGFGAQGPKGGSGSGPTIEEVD
Sequence of HSP27 (P04792 whole entry): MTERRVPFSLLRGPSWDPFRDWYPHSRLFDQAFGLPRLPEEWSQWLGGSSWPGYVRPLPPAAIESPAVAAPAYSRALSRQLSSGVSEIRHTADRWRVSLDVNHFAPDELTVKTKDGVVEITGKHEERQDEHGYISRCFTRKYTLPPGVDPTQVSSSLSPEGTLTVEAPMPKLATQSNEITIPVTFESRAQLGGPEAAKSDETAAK

| SMILES | expression of glucosidase I and glucosidase IIα [1] | expression of glucosidase IIβ [1] | influenza virus-mediated cell lysis / cell killing [2] | Ebola virus replication in vitro (Ebola virus) | animals that had died ([3]; […], vehicle approximately 70% at 60 h, P < 0.05, 25 mg/kg) | liver damage assessed by H&E staining of liver sections ([3]; rabbits, RHDV, 25 mg/kg x4) | virus-induced increases in plasma ALT, LDH, and GGT levels ([3]; rabbits, RHDV, 25 mg/kg x4) | expression of virus protein VP60 mRNA in liver ([3]; rabbits, RHDV, at the time of animal nadir, quantitative RT-PCR) | mTOR Serine 2448 phosphorylation [4] | effect on HSP70 ATPase activity (HSP70 ATPase) | presence in mouse brain tissue 48 h after dosing (48 h after dosing) | peak brain concentration (mouse, IV bolus 10 mg/kg) | time to cross the blood brain barrier after dosing (mouse, IV bolus 10 mg/kg) | effect on HSP90 ATPase activity (HSP90 ATPase) | expression of Ebola virus receptors NPC1 and TIM1 in vitro (NPC1 and TIM1) | expression of HSP27 (HSP27) | detection of HSP90, GRP78, and HSP70 in fixed in situ cells (HSP90, GRP78, and HSP70) | JUNV infected cells expressing viral nucleoprotein NP (Junin virus (JUNV)) | replication of different strains of JUNV (Junin virus (JUNV)) |
| --- | --- | --- | --- | --- | --- | --- | --- | --- | --- | --- | --- | --- | --- | --- | --- | --- | --- | --- | --- |
| NCC(=O)Nc1ccc(-n2nc(C(F)(F)F)cc2-c2ccc3c(ccc4ccccc43)c2)cc1 [AR-12] | rapidly reduced the expression | did not impact | reduced cell lysis / cell killing | suppressed the replication | approximately 30% | reduced obvious liver damage | significantly reduced | less expression | strongly reduced | inhibitory effects | still detectable | 2 µM | ≤ 5 min | inhibitory effects | reduced the expression | reduced | rapid dose- and time-dependent reduction | drastically reduced | potently inhibited |
| Cc1ccc(Nc2nccc(N(C)c3ccc4c(C)n(C)nc4c3)n2)cc1S(N)(=O)=O [pazopanib] |  |  | reduced cell lysis / cell killing |  |  |  |  |  |  | inhibitory effects |  |  |  | inhibitory effects |  |  |  |  |  |
| CNC(=O)c1cc(Oc2ccc(NC(=O)Nc3ccc(Cl)c(C(F)(F)F)c3)cc2)ccn1 [sorafenib, reference compound] | rapidly reduced the expression | did not impact | reduced cell lysis / cell killing |  |  |  |  |  |  | inhibitory effects |  |  |  | inhibitory effects |  | reduced |  |  |  |
